Patent publication US9090593B2, “Bicyclic compounds as Pim inhibitors” (AMGEN INC., priority 2010, dated 2015)
Counter-ions that a name gives are not always drawn. Like-named read-outs stand apart in the source and are kept apart here.

Tests used:
[1] = target: T1, full length recombinant Pim-1 protein (Homo sapiens, UniProt P11309); assay: Pim-1 enzyme assay (HTRF, phosphorylation of biotinylated-BAD (S112) peptide); type: biochemical; conditions: read-out: Pim_1_IC50
T1 construct: by full length recombinant Pim-1, Pim-2, or Pim-3 protein; hexahistidine tag followed by a thrombin cleavage site (N); made in house; host or cells: Sf9 (baculovirus) or E. coli (pET28)
From the text: (§1) These cDNAs were used as templates in PCR reactions to produce full-length DNA clones of the PIMs. […] PCR products were digested with […] and EcoRI for Pim-1 and BamHI and EcoRI for Pim-2 and ligated into a modified baculovirus transfer vector (pFastBac1) cleaved with BamHI and EcoRI. For bacterial expression, the same cleaved PCR products encoding Pim-1 or Pim-2 were ligated into a modified E. coli expression vector pET28(a) cleaved with BamHI and EcoRI Amino-terminal hexahistidine tags followed by a thrombin cleavage site were previously added to the vectors using standard methods of molecular biology. Recombinant baculoviruses expressing Pim-1 or Pim-2 were made using standard methods (Fastbac manual, Invitrogen, Carlsbad, Calif.). Infection of Sf9 cells was done at an m.o.i. of greater than 5 for 24-48 h. Cells were harvested by centrifugation and frozen at −80 C. For E. coli expression, cells carrying pET28-His6-Th-Pim-1 or pET28-His6-Th-Pim-2 were picked from a single colony and grown o/n in LB media. The o/n culture was used to inoculate a 2 liter flask with 500 mL media. This was grown o/n and used to inoculate 15-20 liters of Terrific Broth in a New Brunswick Scientific fermentor. The E. coli were grown at 37° C. to and OD600>1.6. The temperature was dropped to 18° C. and o/n expression was induced with 0.5 mM IPTG. Cells were harvested by centrifugation and frozen at −80° C.
(§2) This step was repeated 3× and the resin was transferred to a 2.5 cm glass column. Ten column volumes of wash buffer (0.05 M HEPES, pH 8.0, 0.1 M NaCl, 0.01 M 2-mercaptoethanol, 10% (w/v) glycerol) were applied to the resin followed by 10 column volumes of elution buffer (0.05 M HEPES, pH 8.0, 0.25 M NaCl, 0.01 M 2-mercaptoethanol, 10% (w/v) glycerol, 0.1 M imidazole). Fractions were analyzed by SDS-PAGE and those containing the protein of interest were pooled and concentrated. The concentrated protein was applied to an Amersham Superdex 75 (XK 26/60) column equilibrated in 0.025 M Tris-HCl, pH 7.5, 0.1 M NaCl, 0.01 M 2-mercaptoethanol, 10% (w/v) glycerol. […] Fractions containing the monomeric protein of interest were pooled, concentrated to ˜2 mg/mL, and stored at −80° C.
(§3) The phosphorylation of biotinylated-BAD (S112) peptide by full length recombinant Pim-1, Pim-2, or Pim-3 protein was detected with streptavidin:Allophycocyanin (APC) conjugate and a europium (Eu) labeled antibody directed against phosphorylated-BAD (S112). […] The fluorescence is directly proportional to the amount of phosphorylated BAD peptide present in the reaction.
(§4) A reference compound was included on each assay plate in order to validate that plate; on one plate of every assay run, two additional reference compounds were included.
(§5) The final buffer conditions were as follows: 60 mM Hepes, pH 7.0, 0.05% BSA, 2 mM DTT. […] The reaction was stopped by the addition of 3 mM EDTA, and fluorescence was measured by an HTRF® Rubystar microplate reader. For each plate, percent of control (POC) values were calculated for each well. Values for the IC50 IP were estimated using a standard 4-parameter logistic model.

[2] = target: T2, full length recombinant Pim-2 protein (Homo sapiens, UniProt Q9P1W9); assay: Pim-2 enzyme assay (HTRF, phosphorylation of biotinylated-BAD (S112) peptide); type: biochemical
T2 construct: by full length recombinant Pim-1, Pim-2, or Pim-3 protein; hexahistidine tag followed by a thrombin cleavage site (N); made in house; host or cells: Sf9 (baculovirus) or E. coli (pET28)
From the text: as §1, §2, §3, §4, §5

T1 sequence (P11309 whole entry): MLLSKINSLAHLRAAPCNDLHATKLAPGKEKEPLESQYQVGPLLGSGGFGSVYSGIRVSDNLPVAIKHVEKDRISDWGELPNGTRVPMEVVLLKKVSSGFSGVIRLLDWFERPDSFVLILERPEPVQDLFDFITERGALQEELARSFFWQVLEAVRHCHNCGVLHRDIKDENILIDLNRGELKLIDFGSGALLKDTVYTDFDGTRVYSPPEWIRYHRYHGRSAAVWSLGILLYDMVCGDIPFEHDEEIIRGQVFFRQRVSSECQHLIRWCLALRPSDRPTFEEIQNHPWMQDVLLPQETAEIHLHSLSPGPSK
T2 sequence (Q9P1W9 whole entry): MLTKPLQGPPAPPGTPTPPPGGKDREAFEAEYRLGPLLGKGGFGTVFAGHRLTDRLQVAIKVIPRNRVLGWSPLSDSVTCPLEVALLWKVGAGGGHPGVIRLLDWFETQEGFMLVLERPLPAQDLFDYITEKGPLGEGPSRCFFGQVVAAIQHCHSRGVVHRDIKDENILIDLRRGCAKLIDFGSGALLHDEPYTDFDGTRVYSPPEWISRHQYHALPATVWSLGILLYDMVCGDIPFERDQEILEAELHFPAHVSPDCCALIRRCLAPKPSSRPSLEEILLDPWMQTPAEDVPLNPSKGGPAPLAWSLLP

Row | SMILES | IC50 [1] [nM] | IC50 ([2]; read-out: Pim2_IC50) [µM] | IC50 ([2]; Pim2_IC50 (uM)) [µM]
1 | CC1CCCCN1c1nc(-c2ccc3[nH]cc(-c4cncc(O[C@@H]5CCCNC5)n4)c3c2)cs1 (mixture of isomers) [Example 303] | 158 | 0.733 | –
2 | CC1CCCN(c2cnc(-c3ccc4[nH]cc(-c5cncc(O[C@@H]6CCCNC6)n5)c4c3)cn2)C1 (mixture of isomers) [Example 306] | 23 | 0.093 | –
3 | c1ccc(Nc2ccc3[nH]nc(-c4cncc(O[C@H]5CNCCC56CC6)n4)c3c2)cc1 [Example 251, 3-(6-((4R)-6-azaspiro[25]oct-4-yloxy)-2-pyrazinyl)-N-phenyl-1H-indazol-5-amine bis(2,2,2-trifluoroacetate)] | 4 | 0.039 | –
4 | N#Cc1ccc2[nH]nc(-c3cncc(O[C@H]4CNCCC45CC5)n3)c2c1 [Example 254, 3-(6-((4R)-6-azaspiro[2.5]oct-4-yloxy)-2-pyrazinyl)-1H-indazole-5-carbonitrile] | 364 | – | > 1
5 | CC(=O)c1ccc2[nH]nc(-c3cncc(O[C@H]4CNCCC45CC5)n3)c2c1 [Example 268, 1-(3-(6-((4R)-6-azaspiro[25]oct-4-yloxy)-2-pyrazinyl)-1H-indazol-5-yl)ethanone 2,2,2-trifluoroacetate] | 105 | 0.146 | –
6 | OCCc1ccc2[nH]nc(-c3cncc(O[C@H]4CNCCC45CC5)n3)c2c1 [Example 270, 2-(3-(6-((4R)-6-azaspiro[25]oct-4-yloxy)-2-pyrazinyl)-1H-indazol-5-yl)ethanol hydrochloride] | 46 | 0.166 | –
7 | CC(CO)c1ccc2c(c1)c(-c1cncc(O[C@H]3CNCCC34CC4)n1)nn2C (stereo partly drawn) [Example 271, 2-(3-(6-((4R)-6-azaspiro[25]oct-4-yloxy)-2-pyrazinyl)-1-methyl-1H-indazol-5-yl)-1-propanol] | 159 | 0.2 | –
8 | c1cc2[nH]nc(-c3cncc(O[C@H]4CNCCC45CC5)n3)c2cc1-c1cncc(C2CC2)n1 [Example 275, 3-(6-((4R)-6-azaspiro[2.5]oct-4-yloxy)-2-pyrazinyl)-5-(6-cyclopropyl-2-pyrazinyl)-1H-indazole] | 9 | 0.099 | –
9 | COc1cc(-c2c[nH]c3ccc(-c4c(F)cccc4F)cc23)nc(N2CCC(N)CC2)n1 [Example 276, 1-(4-(5-(2,6-difluorophenyl)-1H-indol-3-yl)-6-methoxypyrimidin-2-yl)piperidin-4-amine] | 344 | 0.929 | –
10 | COc1cc(-c2c[nH]c3ccc(-c4c(F)cccc4F)cc23)nc(N[C@@H]2CCCNC2)n1 [Example 278, (R)-4-(5-(2,6-difluorophenyl)-1H-indol-3-yl)-6-methoxy-N-(piperidin-3-yl)pyrimidin-2-amine] | 565 | 0.7 | –
11 | CC(C)Oc1cncc(-c2ccc3[nH]cc(-c4nnc(N5CCC(N)CC5)o4)c3c2)n1 [Example 280, 1-(5-(5-(6-isopropoxypyrazin-2-yl)-1H-indol-3-yl)-1,3,4-oxadiazol-2-yl)piperidin-4-amine] | 22 | 0.161 | –
12 | CC(C)Oc1cncc(-c2ccc3[nH]cc(-c4nn(C(C)C)c(=O)o4)c3c2)n1 [Example 281, 5-(5-(6-isopropoxypyrazin-2-yl)-1H-indol-3-yl)-3-isopropyl-1,3,4-oxadiazol-2(3H)-one] | 70 | 0.597 | –
13 | CN(C)C(=O)c1ccc2[nH]nc(-c3ccnc(N4CCC(N)CC4)n3)c2c1 [Example 284, 3-(2-(4-aminopiperidin-1-yl)pyrimidin-4-yl)-N,N-dimethyl-1H-indazole-5-carboxamide] | 839 | > 1 | –
14 | c1cnc(N2CCOCC2)c(-c2ccc3[nH]cc(-c4cncc(O[C@@H]5CCCNC5)n4)c3c2)c1 [Example 338] | 69 | – | –
15 | CC(C)Oc1cncc(-c2ccc3[nH]cc(-c4nnc(N5CCC[C@@H](N)C5)o4)c3c2)n1 [Example 525] | 70 | – | –

The next lines start with results.

Row | IC50 [1] [nM] | IC50 ([2]; read-out: Pim2_IC50) [µM] | SMILES | IC50 ([2]; Pim2_IC50 (uM)) [µM]
16 | 32 | 0.269 | O[C@@H]1CN(c2cncc(-c3n[nH]c4ccc(-c5c(F)cccc5F)cc34)n2)CC[C@@H]1O (single isomer, unassigned) [Example 249, cis-1-(6-(5-(2,6-difluorophenyl)-1H-indazol-3-yl)-2-pyrazinyl)-3,4-piperidinediol] | –
17 | 46 | 0.309 | O[C@@H]1CN(c2cncc(-c3n[nH]c4ccc(-c5c(F)cccc5F)cc34)n2)CC[C@@H]1O (single isomer, unassigned) [Example 250, cis-1-(6-(5-(2,6-difluorophenyl)-1H-indazol-3-yl)-2-pyrazinyl)-3,4-piperidinediol] | –
18 | 70 | 0.287 | Fc1cccc(F)c1-c1ccc2[nH]nc(-c3cncc(CC4CCCNC4)n3)c2c1 (single isomer, unassigned) [Example 273, 5-(2,6-difluorophenyl)-3-(6-(3-piperidinylmethyl)-2-pyrazinyl)-1H-indazole] | –
19 | 20 | 0.09 | Fc1cccc(F)c1-c1ccc2[nH]nc(-c3cncc(CC4CCCNC4)n3)c2c1 (single isomer, unassigned) [Example 274, 5-(2,6-difluorophenyl)-3-(6-(3-piperidinylmethyl)-2-pyrazinyl)-1H-indazole] | –
20 | 30 | 0.203 | CC(C)C1CCNCC1Oc1cncc(-c2n[nH]c3ccc(-c4c(F)cccc4F)cc23)n1 (single isomer, unassigned) [Example 394] | –
21 | 28 | 0.076 | Fc1cccc(F)c1-c1ccc2[nH]nc(-c3cncc(SC4CCCNC4)n3)c2c1 (single isomer, unassigned) [Example 415] | –
22 | 105 | 0.174 | Fc1cccc(F)c1-c1ccc2[nH]nc(-c3cncc(OC4C=CCNC4)n3)c2c1 (single isomer, unassigned) [Example 426] | –
23 | 30 | 0.076 | Fc1cccc(F)c1-c1ccc2[nH]nc(-c3cncc(OC4CCNCC45CC5)n3)c2c1 (single isomer, unassigned) [Example 429] | –
24 | 159 | 0.407 | Fc1cccc(F)c1-c1ccc2[nH]cc(-c3cncc(OC4CNCCC45CC5)n3)c2c1 (single isomer, unassigned) [Example 439] | –
25 | 70 | 0.196 | CC1CNCC(Oc2cncc(-c3n[nH]c4ccc(-c5c(F)cccc5F)cc34)n2)C1 (single isomer, unassigned) [Example 468] | –
26 | 551 | 0.798 | Fc1cccc(F)c1-c1ccc2[nH]nc(-c3cncc(Oc4cccnc4)n3)c2c1 [Example 246, 5-(2,6-difluorophenyl)-3-(6-(3-pyridinyloxy)-2-pyrazinyl)-1H-indazole] | –
27 | 70 | 0.121 | Cn1nccc1-c1ccc2[nH]nc(-c3cncc(O[C@H]4CNCCC45CC5)n3)c2c1 [Example 252, 3-(6-((4R)-6-azaspiro[2.5]oct-4-yloxy)-2-pyrazinyl)-5-(1-methyl-1H-pyrazol-5-yl)-1H-indazole] | –
28 | 13 | 0.044 | C#Cc1ccccc1-c1ccc2[nH]nc(-c3cncc(O[C@H]4CNCCC45CC5)n3)c2c1 [Example 266, 3-(6-((4R)-6-azaspiro[25]oct-4-yloxy)-2-pyrazinyl)-5-(2-ethynylphenyl)-1H-indazole bis(2,2,2-trifluoroacetate)] | –
29 | 30 | 0.044 | C=C(Cl)c1ccccc1-c1ccc2[nH]nc(-c3cncc(O[C@H]4CNCCC45CC5)n3)c2c1 [Example 267, 3-(6-((4R)-6-azaspiro[25]oct-4-yloxy)-2-pyrazinyl)-5-(2-(1-chloroethenyl)phenyl)-1H-indazole bis(2,2,2-trifluoroacetate)] | –
